Data set [1] deals with subcutaneous H460 (non-small cell lung carcinoma). Nature of the data set: SNS-595 and carboplatin in non-small cell lung carcinoma H460 xenograft model. To be noted: SNS-595 10 mg/kg IV qw x5, carboplatin 75 mg/kg IP qw x3, combination of both. In kind it is in vivo, athymic nude mice. The protocol: The effect of co-administration of SNS-595 and carboplatin was observed on the growth of non-small cell lung carcinoma, athymic nude mice bearing subcutaneous H460. The mice were treated with SNS-595, carboplatin or the two in combination as indicated below.

Data set [2] deals with subcutaneous A2780 xenografts (ovarian carcinoma). The data set is described as follows: SNS-595 and cisplatin in ovarian carcinoma A2780 xenograft model. To be noted: SNS-595 10 mg/kg IV qw x3, cisplatin 5 mg/kg IP qw x3, combination of both.
Description: The effect of co-administration of SNS-595 and cisplatin was observed on the growth of ovarian carcinoma studied in athymic nude mice bearing subcutaneous A2780 xenografts. The mice were treated with SNS-595, cisplatin or the two in combination as indicated below.
Animal treatment was initiated when mean tumor volume was 200 mm^3. The combination was co-dosed once a week for three weeks. Tumor volumes and animal body weight were measured twice weekly.
Data set [3] concerns subcutaneous H460 xenografts (non-small cell lung carcinoma). Nature of the data set: SNS-595 and gemcitabine in non-small cell lung carcinoma H460 xenograft model. It counts as in vivo, athymic nude mice. Particulars: SNS-595 10 mg/kg IV qw x3, gemcitabine 75 mg/kg IP biw x2, combination of both; for BW Nadir: H460 xenograft mice; for BW Nadir (Day of): day of body weight nadir.
Description: The effect of co-administration of SNS-595 and gemcitabine on the growth of non-small cell lung carcinoma, athymic nude mice bearing subcutaneous H460 xenografts were treated with SNS-595, gemcitabine or the two in combination as indicated below.
SNS-595 was administered once a week and gemcitabine was twice weekly as indicated above with the combination being co-dosed. In the vehicle group, the gemcitabine vehicle was administered 24 hours after the SNS-595 vehicle representing additional treatment arms in the experiment. Tumor volume and animal body weight was measured at least twice weekly.

For data set [4], the system named is subcutaneous BxPC-3 xenografts (pancreatic carcinoma). Nature of the data set: SNS-595 and gemcitabine in pancreatic carcinoma BxPC-3 xenograft model. In kind it is in vivo, NIH-III mice. Particulars: SNS-595 15 mg/kg IV qw x3, gemcitabine 65 mg/kg IP biw x3; for BW Nadir: BxPC-3 xenograft mice; for BW Nadir / % Tumor Growth Inhibition (Day 38) / BW Nadir (Day of): combination of both; for BW Nadir (Day of): day of body weight nadir.
Description: SNS-595 was administered once a week and gemcitabine was twice weekly for two weeks followed by one additional dose as indicated above with the combination being co-dosed. Tumor volume and animal body weight was measured at least once weekly. SNS-595 was administered once a week and gemcitabine was twice weekly for two weeks followed by one additional dose as indicated above with the combination being co-dosed. Tumor volume and animal body weight was measured at least once weekly.

Data set [5] in a line: Solubility of SNS-595 in acidic compositions. It counts as physicochemical. To be noted: acidic compositions (<pH 4). How it is done: An illustrative example of a suitable composition comprises: 10 mg SNS-595 per mL of aqueous solution of 4.5% sorbitol that is adjusted to pH 2.5 with methanesulfonic acid. One protocol for making such a solution includes the following for making a 100 mg/10 mL presentation: 100 mg of SNS-595 and 450 mg D-sorbitol are added to distilled water; the volume is brought up to a volume of 10 mL; and the pH of the resulting solution is adjusted to 2.5 with methanesulfonic acid. The resulting composition is also suitable for lyophilization. The lyophilized form is then reconstituted with sterile water to the appropriate concentration prior to use.

Several values for one entry are separate records, joined by “and”; a condition that tells them apart may be missing. Equal values may be shown once.

As for `N.N.O=C([O-])C1(C(=O)[O-])CCC1.[Pt+2]` [Carboplatin, carboplatin], in data set [1], the “% Tumor Growth Inhibition (Day 16)” value was determined as 31.6% and the “Tumor Growth Delay” value is reported as 12.5 days. Besides, the “% Tumor Growth Inhibition (Day 16)” value in data set [1] (listed as carboplatin) was found to be 32%. Moreover, in data set [1] (H460 xenograft mice), the “BW Nadir” value is −2.8%. In addition, in data set [1] (day of body weight nadir), the “BW Nadir (Day of)” value is listed as “(Day 16)”.

With `N.N.[Cl][Pt][Cl]` [Cisplatin, cisplatin], in data set [2] (A2780 xenograft mice), the “BW Nadir” value was −10.9%. Also, in data set [2], the “% Tumor Growth Inhibition (Day 11)” value turned out to be 49.0% and the “Tumor Growth Delay” value is on record as 11.0 days. For the same compound, the “% Tumor Growth Inhibition (Day 11)” value in data set [2] (listed as cisplatin) came to 49%. In addition, in data set [2] (day of body weight nadir), the “BW Nadir (Day of)” value is given as “(Day 11)”.

In the case of `Nc1ccn([C@@H]2O[C@H](CO)[C@@H](O)C2(F)F)c(=O)n1` [Gemcitabine, gemcitabine], in data set [3], the “% Tumor Growth Inhibition (Day 11)” value was 36.6%, the “BW Nadir” value was −7.4%, the “Tumor Growth Delay” value stood at 5.0 days and the “BW Nadir (Day of)” value is “(Day 11)”. Besides, the “% Tumor Growth Inhibition (Day 11)” value in data set [3] (listed as gemcitabine) is on record as 37%. Besides, in data set [4], the “BW Nadir” value came out at 0%, the “% Tumor Growth Inhibition (Day 38)” value stood at 20.2%, the “Tumor Growth Delay” value was 12.5 days and the “BW Nadir (Day of)” value is recorded as “(Day 0)”. In addition, the “% Tumor Growth Inhibition (Day 38)” value in data set [4] (listed as gemcitabine) is 20%.

On to `CN[C@H]1CN(c2ccc3c(=O)c(C(=O)O)cn(-c4nccs4)c3n2)C[C@@H]1OC` [SNS-595, (+)-1,4-dihydro-7-[(3S,4S)-3-methoxy-4-(methylamino)-1-pyrrolidinyl]-4-oxo-1-(2-thiazolyl)-1,8-naphthyridine-3-carboxylic acid], for which, in data set [1], the “% Tumor Growth Inhibition (Day 16)” value was 53% and 53.2%; the “Tumor Growth Delay” value is given as 23.0 days. In data set [3], the “% Tumor Growth Inhibition (Day 11)” value was 62% and 61.9%; the “BW Nadir” value was −5.9%; the “Tumor Growth Delay” value is listed as 11.0 days; the “BW Nadir (Day of)” value was “(Day 11)”. Moreover, in data set [4], the “BW Nadir” value is listed as −2.5%; the “% Tumor Growth Inhibition (Day 38)” value is 26% and 25.9%; the “Tumor Growth Delay” value amounted to 23.0 days; the “BW Nadir (Day of)” value is listed as “(Day 11)”. Also, the solubility entry in data set [5] is on record as “increased solubility”. In data set [2], the “% Tumor Growth Inhibition (Day 11)” value turned out to be 21.7% and the “Tumor Growth Delay” value came to 5.5 days.

The values above are taken from US8518872B2, “Methods of using (+)-1,4-dihydro-7-[(3S,4S)-3-methoxy-4-(methylamino)-1-pyrrolidinyl]-4-OXO-1-(2-thiazolyl)-1,8-naphthyridine-3-carboxylic acid in combination therapy” (Sunesis Pharmaceuticals, Inc., priority 2007, dated 2013).
